# Source: patent publication US9278058B2, “Melanin production inhibitor” (Shiseido Company, Ltd., priority 2012, dated 2016)
# Tests used:
# Mouse B16 melanoma cells [1] = experiment: Melanin formation inhibition test; assay type: cell-based; settings: for Ratio of Amount of Melanin (%): 3 days, solvent-only group = 100
# Protocol: As will be described in detail in the subsequent examples, screening for aromatic components of the melanin formation inhibitor was carried out by allowing various candidate aromatics to act on B16 melanoma, and evaluating cytotoxicity and the ratio of the amount of melanin (%) in comparison with a control (addition of solvent only). Mouse B16 melanoma cells were disseminated in a 6-well plate at 100,000 cells/well. On the following day, a test substance solution (solvent: ethyl alcohol) was added and used in a cell proliferation test and melanin formation inhibition test. A nature identical synthetic aromatic in the form of phenylethyl cinnamate (Toyotama International Inc.) was used for the test substance, and it was used in the tests indicated below. The medium was aspirated off 3 days after addition of test substance, and after washing using a buffer (50 mM phosphate buffer, pH 6.8), 1 M NaOH solution was added to lyse the cells followed by measurement of absorbance at 475 nm. The ratio of the amount of melanin (%) of a test substance addition group based on a value of 100 for a test substance non-addition group (addition of solvent only) was calculated using that value as a relative value of the amount of melanin. A lower value for the ratio of the amount of melanin means higher melanin formation inhibitory effects.
# Mouse B16 melanoma cells [2] = experiment: Cell proliferation test (alamar blue); assay type: cell-based; settings: for No. of Cells (%): 3 days, solvent-only group = 100
# Protocol: As will be described in detail in the subsequent examples, screening for aromatic components of the melanin formation inhibitor was carried out by allowing various candidate aromatics to act on B16 melanoma, and evaluating cytotoxicity and the ratio of the amount of melanin (%) in comparison with a control (addition of solvent only). Mouse B16 melanoma cells were disseminated in a 6-well plate at 100,000 cells/well. On the following day, a test substance solution (solvent: ethyl alcohol) was added and used in a cell proliferation test and melanin formation inhibition test. A nature identical synthetic aromatic in the form of phenylethyl cinnamate (Toyotama International Inc.) was used for the test substance, and it was used in the tests indicated below. After aspirating off the medium 3 days after adding the test substance solution, 1 ml of EMEM medium containing 10% alamar blue solution was added and allowed to react at 37° C. 30 minutes later, 100 μl were transferred to a […] followed by measurement of fluorescence at an excitation wavelength of 544 nm and measurement wavelength of 590 nm. The ratio of the number of cells (% number of cells) of a test substance addition group based on a value of 100 for a test substance non-addition group (addition of solvent only) was calculated by using that value as a relative value of the number of viable cells. A higher value for % number of cells means a lower level of cytotoxicity.
# [3] = test substance final concentration 1 ppm
# [4] = test substance final concentration 2 ppm
smiles,measurement,setting,value
"O=C(/C=C/c1ccccc1)OCCc1ccccc1 [Phenylethyl Cinnamate, 2-Phenylethyl 3-phenyl • propenoate]",melanin formation inhibitory effects (in words),Mouse B16 melanoma cells [1]; summary of Table 1 results,superior melanin formation inhibitory effects
same,Ratio of Amount of Melanin (%),Mouse B16 melanoma cells [1]; [3],82%
same,Ratio of Amount of Melanin (%),Mouse B16 melanoma cells [1]; [4],74%
same,cytotoxicity (in words),Mouse B16 melanoma cells [2]; summary of Table 1 results,hardly any cytotoxicity
same,No. of Cells (%),Mouse B16 melanoma cells [2]; [3],94%
same,No. of Cells (%),Mouse B16 melanoma cells [2]; [4],92%
